Data published in patent US7037901B1, “Radiosensitization by indolocarbazole derivatives” (priority 2001, dated 2006).

Tests used:
[1] = test system: human breast cancer MCF-7 cells; assay: Clonogenic survival assay with radiation (radiosensitization) in MCF-7 cells; format: cell-based
Procedure: (§1) Clonogenic Survival Assay. […] 18–24 h prior to experimental studies.
(§2) Colonies consisting of >50 cells were counted.
(§3) Irradiation of Cells. Drug-treated and control cells in medium were irradiated using a cobalt-60 source (Eldorado 8; Theratronics, Canada) at a dose rate of 105 cGy/min.
(§4) Analysis of Survival Curves. Survival curves were corrected for cytotoxicity induced by drug alone treatment. Sensitization enhancement ratios (SERs) and standard deviations for survival curves were determined at 10% cell survival. Each SER was calculated by dividing the radiation dose to induce 10% cell survival in the absence of radiosensitizer with the radiation dose to induce 10% cell survival in the presence of radiosensitizer.
The updated programs developed by Dr. N. Albright (San Rafael, Calif.) (Albright, N., Radiat. Res., 112:331–340 (1987)) were used for curve fitting for MCF-7 cells with the linear quadratic (LQ) and the single hit multi-target (SHMT) models. Both the LQ and SHMT models gave qualitatively good fits. The fit with the SHMT model was used for the present study.

[2] = test system: human breast cancer MCF-7 cells; assay: Clonogenic survival assay, drug alone (cytotoxicity) in MCF-7 cells; format: cell-based; conditions: 1 μM camptothecin for 1 h, read graphically from FIG. 2
Procedure: as §1, §2

[3] = target: T1, covalent topoisomerase-DNA cross-links in CHO cells (Cricetulus griseus, UniProt Q07050, S505G); assay: In vivo K+-SDS co-precipitation assay for protein-DNA cross-links; format: cell-based, Chinese hamster; conditions: FIG. 5
T1 construct: endogenous in cells; host or cells: Chinese hamster ovary CHO cells
From the text: In vivo K^+-SDS co-precipitation assay for protein-DNA cross-links. The K^+-SDS co-precipitation assay as described previously (Chen, Y. N., et al., J. Biol. Chem., 265:10073–10080 (1990)) was used to quantify the formation of covalent topoisomerase-DNA cross-links in drug-treated cells.
Briefly, the DNA in logarithmic growing Chinese hamster CHO cells was overnight-labeled in medium containing 1 μCi/ml of [mehtyl-^3H] thymidine. These cells were then trypsinized and diluted in fresh medium before aliquoted into a 24-well plate. After overnight incubation, the labeled cells were treated with various concentrations of drugs for 30 min, washed with phosphate-buffered saline once, and lysed by adding 1 ml of prewarmed lysis solution (1.25% SDS, 5 mM EDTA, 0.4 mg/ml salmon sperm DNA, pH 8.0, 65° C.).
Following shearing chromosomal DNA by passing the lysate through a 19-gauge needle, the sample was transferred to a tube containing 0.25 ml of 325 mM KCl. The sample was vortexed vigorously for 10 s, cooled on ice for 10 min and centrifuged at 3000 rpm for 10 min at 4° C.
The pellet was then resuspended in 1 ml of a wash solution (100 mM KCl, 1 mM EDTA, 0.1 mg/ml salmon sperm DNA, 10 mM Tris-HCl, pH 8.0) and placed at 65° C. for 10 min with occasional mixing. The sample was again cooled on ice for 10 min and centrifuged at 3000 rpm for 10 min at 4° C. After the pellet from each sample was washed again, the pellet was finally resuspended in 0.2 ml of 65° C. water and added to 5 ml of scintillation fluid to determine radioactive counts.
The background precipitable counts were obtained by treating the lysate with proteinase K (400 μg/ml) at 65° C. for 2 h. Data are arithmetic means (±SD) of three determinations, and the background counts have been subtracted.

[4] = test system: camptothecin-resistant, TOP1 mutant DC3F/C-10 cells
Procedure: Clonogenic Survival Assay. For a typical clonogenic survival experiment, stock cultures of exponentially growing cells were trypsinized, rinsed, and plated (5×10^5 cells per dish for DC3F and DC3F/C-10 cells; 1×10^6 cells for MCF-7 cells) into 100-mm petri dishes and incubated at 37° C. 18–24 h prior to experimental studies.
Following various experimental protocols with drug incubation and irradiation, cells were trypsinized, rinsed, counted, and plated for […] colony formation. Depending on the anticipated survival level, 10^2 to 10^5 cells were plated per dose point. When higher cell numbers were plated, large petri dishes were used to avoid possible cell-density effect (100-mm instead of 60-mm petri dishes for cell number≧5×10^4). Depending on the treatment protocols, an equivalent amount of DMSO was added into each of the control radiation alone dishes (final DMSO concentration <0.1%).
Following seven to fourteen days of incubation, colonies were fixed with methanol/acetic acid (3:1), stained with crystal violet. Colonies consisting of >50 cells were counted. All survival points were done in triplicate, and experiments were conducted a minimum of two times. Error bars shown in the figures represent standard deviations (SD) and are shown when larger than the symbol.
The DC3F/C-10 cell line was selected from the Chinese Hamster lung fibroblast DC3F cell line in the presence of 1 μM of camptothecin (Albright, N., Radiat. Res., 112:331–340 (1987), and Chen, Y. N., J. Biol. Chem., 265:10073–10080 (1990)). […] In an attempt to determine the importance of TOP1 in mediating the cytotoxic and radiosensitizing effects by INDO derivatives, clonogenic survival assays were performed in DC3F and DC3F/C10 cells.

[5] = test system: DC3F cells; assay: Radiosensitization in DC3F cells (clonogenic survival with radiation); format: cell-based, Chinese hamster
Procedure: as §1, §2, §3, §4

[6] = test system: TOP1 mutant DC3F/C10 cells; assay: Radiosensitization in DC3F/C10 cells (clonogenic survival with radiation); format: cell-based, Chinese hamster; conditions: DC3F/C10 cells
Procedure: as §1, §2, §3, §4

[7] = target: T2, purified human TOP1 (Homo sapiens, UniProt P11387); assay: In vitro drug-stimulated TOP1 cleavage assay (pHOT1 plasmid nicking); format: biochemical; conditions: purified human TOP1; FIG. 4, 4C
T2 construct: purchased TopoGEN, Inc. (Columbus, Ohio)
T2 sequence (P11387 1-765): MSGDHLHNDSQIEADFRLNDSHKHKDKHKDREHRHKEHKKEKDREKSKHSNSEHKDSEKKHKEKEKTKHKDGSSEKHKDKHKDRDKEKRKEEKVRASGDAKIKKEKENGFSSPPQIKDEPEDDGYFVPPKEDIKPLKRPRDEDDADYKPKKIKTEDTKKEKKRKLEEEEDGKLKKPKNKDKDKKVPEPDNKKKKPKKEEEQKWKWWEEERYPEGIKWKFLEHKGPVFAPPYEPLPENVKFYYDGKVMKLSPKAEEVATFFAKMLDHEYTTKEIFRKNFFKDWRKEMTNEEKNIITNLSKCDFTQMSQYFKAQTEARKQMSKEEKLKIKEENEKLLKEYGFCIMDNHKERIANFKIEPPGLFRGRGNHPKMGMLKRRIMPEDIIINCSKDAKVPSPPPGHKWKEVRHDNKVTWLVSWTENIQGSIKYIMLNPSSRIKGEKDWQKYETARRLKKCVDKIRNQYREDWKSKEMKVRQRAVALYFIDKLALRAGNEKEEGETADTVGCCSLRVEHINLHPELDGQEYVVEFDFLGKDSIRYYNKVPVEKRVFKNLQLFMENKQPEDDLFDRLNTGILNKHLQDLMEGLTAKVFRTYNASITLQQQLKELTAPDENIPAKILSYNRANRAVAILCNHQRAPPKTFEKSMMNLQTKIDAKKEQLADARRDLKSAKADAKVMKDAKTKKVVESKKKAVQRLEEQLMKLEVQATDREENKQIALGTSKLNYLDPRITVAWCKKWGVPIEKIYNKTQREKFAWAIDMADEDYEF
Procedure: In vitro drug-stimulated TOP1 cleavage assay. Drug-stimulated DNA cleavage assay using purified human TOP1 was performed according to the protocol provided by TopoGEN Inc. (Columbus, Ohio) with modifications.
Briefly, supercoiled pHOT1 plasmid DNA (0.2 μg) was incubated with 1 unit of human TOP1 in cleavage buffer (50 mM Tris, pH 7.8, 50 mM KCl, 10 mM MgCl2, 1 mM dithiothreitol, 1 mM EDTA) in the presence of varying concentrations of the drug under study. Following a 30-min incubation at 37° C., the reactions were terminated by adding SDS to 1.0% and proteinase K to 200 μg/ml. The proteinase K treatment continued at 37° C. for 1 h. The sample was then mixed with loading dye (containing sucrose and bromphenol blue) and separated in 1% agarose gel in 0.08 M Tris-phosphate, 0.008 M EDTA, pH 8.0 buffer at room temperature for 16 h.
The gel was initially stained with ethidium bromide ([…]), washed and photographed under UV light. In order to separate the “nicked” from the “relaxed” DNA population, the gel was further run for 4 h in the presence of ethidium bromide before being photographed again under UV light. The photograph was scanned and the intensity of the nicked DNA of each lane was measured using the ImageJ program obtained from the National Institutes of Health (web site: rsb.info.nih.gov/ij/). The intensity of the nicked band of each lane was plotted after the background intensity (pHOT1+TOP1 lane) was subtracted.

T1 sequence (Q07050 2-767 S505G): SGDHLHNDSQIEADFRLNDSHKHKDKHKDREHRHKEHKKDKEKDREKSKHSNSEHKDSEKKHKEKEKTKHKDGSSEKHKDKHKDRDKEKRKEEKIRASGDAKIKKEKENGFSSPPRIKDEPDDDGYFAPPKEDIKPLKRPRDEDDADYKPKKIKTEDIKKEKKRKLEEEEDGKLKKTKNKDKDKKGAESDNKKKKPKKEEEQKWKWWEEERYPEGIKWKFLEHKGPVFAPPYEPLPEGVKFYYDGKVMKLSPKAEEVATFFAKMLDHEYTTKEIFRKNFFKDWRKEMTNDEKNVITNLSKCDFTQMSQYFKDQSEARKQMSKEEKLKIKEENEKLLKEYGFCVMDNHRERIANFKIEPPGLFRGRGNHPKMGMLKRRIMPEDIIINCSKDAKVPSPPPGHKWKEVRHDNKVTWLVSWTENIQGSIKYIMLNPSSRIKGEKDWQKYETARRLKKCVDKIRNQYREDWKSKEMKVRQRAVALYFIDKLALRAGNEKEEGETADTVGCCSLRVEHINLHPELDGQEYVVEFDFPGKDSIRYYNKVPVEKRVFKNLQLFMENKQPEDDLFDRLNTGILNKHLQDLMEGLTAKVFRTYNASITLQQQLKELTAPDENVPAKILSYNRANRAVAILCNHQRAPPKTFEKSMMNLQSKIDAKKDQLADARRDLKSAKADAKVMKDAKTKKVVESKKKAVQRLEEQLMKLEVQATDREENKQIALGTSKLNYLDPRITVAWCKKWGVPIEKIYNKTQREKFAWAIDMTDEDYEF

Compound	ER (SER per footnote c, sensitization enhancement ratio) ([1]; 1 μM camptothecin 1 h before radiation, at 10% survival)	Dq (width of the shoulder of the radiation survival curve) ([1]; SHMT model fit, FIG. 3B)	RT dose (Gy) at 10% survival ([1]; pre-treated 1 μM camptothecin 1 h, rinsed, then radiation) [Gy]	Percent of cell survival without RT [2] [%]	Potency in stabilizing DNA-protein crosslinks (rank order) [3]	Relative resistance of DC3F/C10 cells to the cytotoxic effect ([4]; LD50 of DC3F/C10 divided by LD50 of DC3F, camptothecin 30-min treatment)	RR (relative resistance) ([4]; LD50 of DC3F/C-10 cells divided by LD50 of DC3F cells)	Radiation Dose (Gy) at 10% Survival ([5]; 0.1 μM) [Gy]	SER ([5]; 0.1 μM)	Radiation Dose (Gy) at 10% Survival ([5]; 1.0 μM) [Gy]	SER ([5]; 1.0 μM)	Radiation Dose (Gy) at 10% Survival ([6]; 1.0 μM) [Gy]	SER ([6]; 1.0 μM)	Radiation Dose (Gy) at 10% Survival ([6]; 10 μM) [Gy]	SER ([6]; 10 μM)	Potency in inducing TOP1-mediated DNA cleavage (nicking of pHOT1) [7]
CC[C@@]1(O)C(=O)OCc2c1cc1n(c2=O)Cc2cc3ccccc3nc2-1 [Camptothecin, Camptothecin lactone, reference compound]	1.4	drastically reduced	5.0	72 ± 5	most potent	more than 12 fold	>12	4.3	1.4	3.9	1.5	5.2	1.0	4.6	1.1	–
COc1cc([C@@H]2c3cc4c(cc3[C@@H](O[C@@H]3O[C@@H]5CO[C@@H](C)O[C@H]5[C@H](O)[C@H]3O)[C@H]3COC(=O)[C@H]23)OCO4)cc(OC)c1O [etoposide, reference compound]	–	–	–	–	–	–	–	–	–	–	–	–	–	–	–	no activity in inducing TOP1-mediated nicking of DNA
